Experiments:
gabapentin binding site = assay: Gabapentin binding assay (displacement of gabapentin from its binding site)
Description: Gabapentin is used in the binding assay in order to check the binding and affinities of the selected compounds. The affinity of the compounds according to the invention is measured via the displacement of gabapentin from its binding site.

[1] = tested on: phenylquinone-induced writhing; assay: Phenylquinone-induced writhing test in mice; type: in vivo; settings: male NMRI mice, groups of 10

COc1cccc(C2CCCC(CN(C)C)C2(O)c2ccc(Cl)cc2)c1 (stereo not shown) [Example 45, 1-(4-chlorophenyl)-2-dimethylaminomethyl-6-(3-methoxyphenyl)-cyclohexanol]
% Inhibition Gabapentin, 10 μmole (gabapentin binding site): 58%

COc1cccc(C2CCCC(CN(C)C)C2(O)c2cccc(Cl)c2)c1 (stereo not shown) [Example 75, 1-(3-chlorophenyl)-2-dimethylaminomethyl-6-(3-methoxyphenyl)-cyclohexanol]
% Inhibition Gabapentin, 10 μmole (gabapentin binding site): 54%

COc1cccc(C2CCCC(CN(C)C)C2(O)c2ccc(C)cc2)c1 (stereo not shown) [Example 76, 2-dimethylaminomethyl-6-(3-methoxyphenyl)-1-p-tolylcyclohexanol]
% Inhibition Gabapentin, 10 μmole (gabapentin binding site): 53%

CN(C)CC1CCCC(c2cccc(O)c2)C1(O)c1ccc(F)cc1 (stereo not shown) [Example 81, 3-[3-dimethylaminomethyl-2-(4-fluorophenyl)-2-hydroxycyclohexyl]-phenol]
% Inhibition Gabapentin, 10 μmole (gabapentin binding site): 48%

CN(C)CC1CCCC(c2cccc(O)c2)C1(O)c1ccccc1 (stereo not shown) [Example 82, 3-(3-dimethylaminomethyl-2-hydroxy-2-phenylcyclohexyl)-phenol]
% Inhibition Gabapentin, 10 μmole (gabapentin binding site): 55%

COc1cccc(C2CCCC(CN(C)C)C2(O)c2ccc(Cl)cc2)c1 (stereo not shown) [Example 85, 1-(4-chlorophenyl)-2-dimethylaminomethyl-6-(3-methoxyphenyl)-cyclohexanol]
Reacting Animals/Control Animals (Writhing) ([1]; 46.4 mg/kg, iv): 10/10 (46.4 mg/kg; iv)

COc1cccc(C2(O)C(CN(C)C)CCCC2C2CCCCC2)c1 (stereo not shown) [Example 86, 3-dimethylaminomethyl-2-(3-methoxyphenyl)-bicyclohexyl-2-ol]
Reacting Animals/Control Animals (Writhing) ([1]; 21.5 mg/kg, po): 3/10 (21.5 mg/kg; po)

CN(C)CC1CCCC(Cc2ccccc2)C1(O)c1ccc(C(F)(F)F)cc1 (stereo not shown) [Example 87, 2-benzyl-6-dimethylaminomethyl-1-(4-trifluoromethylphenyl)-cyclohexanol]
Reacting Animals/Control Animals (Writhing) ([1]; 10 mg/kg, iv): 2/10 (10 mg/kg; iv)

CN(C)CC1CCCC(Cc2ccccc2)C1(O)c1cccc(O)c1 (stereo not shown) [Example 88, 3-(2-benzyl-6-dimethylaminomethyl-1-hydroxycyclohexyl)-phenol]
Reacting Animals/Control Animals (Writhing) ([1]; 10 mg/kg, iv): 2/10 (10 mg/kg; iv)

CN(C)CC1CCCC(C(C)(C)C)C1(O)c1cccc(O)c1 (stereo not shown) [Example 89, 3-(2-tert.-butyl-6-dimethylaminomethyl-1-hydroxycyclohexyl)-phenol]
Reacting Animals/Control Animals (Writhing) ([1]; 10 mg/kg, iv): 3/10 (10 mg/kg; iv)

Reference: patent publication US7022739B2, “Substituted 1-aminobutan-3-ol compounds” (Gruenenthal GmbH, priority 2000, dated 2006)
